The results in this text go back to US9580390B2, “Indazole compounds as kinase inhibitors and method of treating cancer with same” (University Health Network, priority 2011, dated 2017).

The structures appear in SMILES notation. pIC50: −log10 of the molar value. Read-outs that look alike come from different tables or passages of the source.

For test [1], the system named is ovarian cancer cells (PA-1). In words: Cancer cell line growth inhibition (SRB assay). The class given is cell-based. The settings on record: read-out: Cancer Cell Line GI50 Range PA-1.
Test [2] concerns colon cancer cells (HCT116). In words: Cancer cell line growth inhibition (SRB assay). Conditions: Homo sapiens, HCT-116, read-out: Cancer Cell Line GI50 Range HCT116. The class given is cell-based.
Another test addresses T1, human TTK (Homo sapiens, UniProt P33981).
T1 construct: amino terminal GST fusion of full length human TTK; purchased Invitrogen
T1 sequence (P33981 1-857): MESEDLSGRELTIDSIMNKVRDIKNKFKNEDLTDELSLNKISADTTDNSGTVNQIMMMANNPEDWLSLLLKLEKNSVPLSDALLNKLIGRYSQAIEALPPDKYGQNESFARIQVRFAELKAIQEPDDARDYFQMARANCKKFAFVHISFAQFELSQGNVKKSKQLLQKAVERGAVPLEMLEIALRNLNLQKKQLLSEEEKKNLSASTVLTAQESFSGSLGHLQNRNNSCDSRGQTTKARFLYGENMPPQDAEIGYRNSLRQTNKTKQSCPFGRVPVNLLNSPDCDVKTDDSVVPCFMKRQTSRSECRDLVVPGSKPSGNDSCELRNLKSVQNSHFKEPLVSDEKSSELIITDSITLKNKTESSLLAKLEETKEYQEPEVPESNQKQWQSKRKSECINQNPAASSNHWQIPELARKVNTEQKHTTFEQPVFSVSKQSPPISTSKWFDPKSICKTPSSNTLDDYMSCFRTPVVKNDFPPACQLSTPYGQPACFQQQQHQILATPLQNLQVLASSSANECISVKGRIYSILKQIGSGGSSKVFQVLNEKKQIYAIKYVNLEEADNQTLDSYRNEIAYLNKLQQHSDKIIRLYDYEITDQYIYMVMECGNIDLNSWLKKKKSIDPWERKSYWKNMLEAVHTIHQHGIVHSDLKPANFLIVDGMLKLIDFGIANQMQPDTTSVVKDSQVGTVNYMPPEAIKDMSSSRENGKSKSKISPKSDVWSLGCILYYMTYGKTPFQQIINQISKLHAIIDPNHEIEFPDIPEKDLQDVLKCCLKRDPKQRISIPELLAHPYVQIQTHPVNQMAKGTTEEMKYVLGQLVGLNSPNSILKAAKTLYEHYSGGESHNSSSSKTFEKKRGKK
In words: TTK inhibition assay (indirect ELISA). The test is classed as biochemical. Conditions: read-out: TTK IC50 Range.

For the next test, the system named is Breast cancer cells. The experiment in a line: Cancer cell line growth inhibition (SRB assay). The class given is cell-based. Conditions: Homo sapiens; MDA-MB-468; read-out: Cancer Cell Line GI50 Range MDA-MB-468.

Regarding `O=C(NC(c1ccccc1)C1CCC1)c1ccc2[nH]nc(-c3ccc(O[C@H]4C[C@H]5CC[C@@H](C4)N5C4COC4)cc3)c2c1` (stereo partly drawn) [Example A345, N-(cyclobutyl(phenyl)methyl)-3-(4-(((1R,3R,5S)-8-(oxetan-3-yl)-8-azabicyclo[3.2.1]octan-3-yl)oxy)phenyl)-1H-indazole-5-carboxamide], the GI50 in test [1] (Homo sapiens, PA-1) was in the range of 100 to 500 nM; in test [2], 100 to 500 nM; with Breast cancer cells it was 100 to 500 nM. Besides, the pIC50 on human TTK is over 7.00.

Turning to `CN1CCC(=O)c2cc(-c3n[nH]c4ccc(C(=O)N[C@H](c5ccccn5)C5CCCC5)cc34)ccc21` [Example A242, (S)-N-(cyclopentyl(pyridin-2-yl)methyl)-3-(1-methyl-4-oxo-1,2,3,4-tetrahydroquinolin-6-yl)-1H-indazole-5-carboxamide], the GI50 in test [1] (Homo sapiens, PA-1) is 100 to 500 nM; in test [2], over 500 nM; with Breast cancer cells it was over 500 nM. Besides, the negative-log IC50 (pIC50) at human TTK is over 7.00.

In the case of `Cc1cc(=O)n(C)c2ccc(-c3n[nH]c4ccc(C(=O)N[C@H](c5ccccn5)C5CCCC5)cc34)cc12` [Example A239, (S)-N-(cyclopentyl(pyridin-2-yl)methyl)-3-(1,4-dimethyl-2-oxo-1,2-dihydroquinolin-6-yl)-1H-indazole-5-carboxamide], the 50% growth inhibitory concentration (GI50) in test [1] (Homo sapiens, PA-1) was over 500 nM; in test [2], over 500 nM; in the test on Breast cancer cells, over 500 nM. Also, the pIC50 on human TTK was over 7.00.

Consider `CN1[C@@H]2CC[C@H]1C[C@@H](Oc1ccc(-c3n[nH]c4ccc(C(=O)NC(c5ccccc5)C(F)F)cc34)cc1)C2` (stereo partly drawn) [Example A227, N-(2,2-difIuoro-1-phenylethyl)-3-(4-(((1R,3R,5S)-8-methyl-8-azabicyclo[3.2.1]octan-3-yl)oxy)phenyl)-1H-indazole-5-carboxamide], for which the concentration for 50% growth inhibition (GI50) was 100 to 500 nM in test [1] (Homo sapiens, PA-1); under 100 nM in test [2]; over 500 nM in the test on Breast cancer cells. In addition, the negative logarithm of the IC50 (pIC50) on human TTK is over 7.00.

`CC(C)C[C@H](NC(=O)c1ccc2[nH]nc(-c3ccc(OC4CCN(C5COC5)CC4)cc3)c2c1)c1ccccc1Cl` [Example A511, (S)-N-(1-(2-chlorophenyl)-3-methylbutyl)-3-(4-((1-(oxetan-3-yl)piperidin-4-yl)oxy)phenyl)-1H-indazole-5-carboxamide]: the GI50 in test [1] (Homo sapiens, PA-1) is under 100 nM; in test [2], 100 to 500 nM; in the test with Breast cancer cells it was 100 to 500 nM. In addition, the pIC50 at human TTK was over 7.00.

With `CN1[C@@H]2CC[C@H]1C[C@@H](Oc1ccc(-c3n[nH]c4ccc(C(=O)NC(c5ccccc5Cl)C5CCCC5)cc34)cc1)C2` (stereo partly drawn) [Example A284, N-((2-chlorophenyl)(cyclopentyl)methyl)-3-(4-(((1R,3R,5S)-8-methyl-8-azabicyclo[3.2.1]octan-3-yl)oxy)phenyl)-1H-indazole-5-carboxamide], the concentration for 50% growth inhibition (GI50) is 100 to 500 nM in test [1] (Homo sapiens, PA-1); 100 to 500 nM in test [2]; 100 to 500 nM in the test on Breast cancer cells. Also, the negative logarithm of the IC50 (pIC50) at human TTK is over 7.00.

On to `CCC[C@H](NC(=O)c1ccc2[nH]nc(-c3ccc(OC4CC5CCC(C4)N5C4COC4)cc3)c2c1)c1ccccc1` (stereo partly drawn) [Example A344, 3-(4-(((1R,3R,5S)-8-(oxetan-3-yl)-8-azabicyclo[3.2.1]octan-3-yl)oxy)phenyl)-N-((S)-1-phenylbutyl)-1H-indazole-5-carboxamide], for which the GI50 was 100 to 500 nM in test [1] (Homo sapiens, PA-1); over 500 nM in test [2]; over 500 nM with Breast cancer cells. Also, the negative-log IC50 (pIC50) on human TTK was over 7.00.

`O=C(N[C@H](c1ccccn1)C1CCCC1)c1ccc2[nH]nc(-c3ccc(N4C5CCC4CC(O)C5)cc3)c2c1` (some centres unmarked) [Example A513]: the negative logarithm of the IC50 (pIC50) at human TTK was over 7.00. In the test with Breast cancer cells, the GI50 was under 100 nM.

Take `CC(C)[C@H](NC(=O)c1ccc2[nH]nc(-c3ccc(N4C5CCC4CC(O)C5)cc3)c2c1)c1ccccc1Cl` (stereo partly drawn) [Example A514, N-((S)-1-(2-chlorophenyl)-2-methylpropyl)-3-(4-((1R,3R,5S)-3-hydroxy-8-azabicyclo[3.2.1]octan-8-yl)phenyl)-1H-indazole-5-carboxamide]: the pIC50 on human TTK is over 7.00. Also, the GI50 with Breast cancer cells is under 100 nM.

For the compound `O=C(NC(c1ccccn1)C1CCCC1)c1ccc2[nH]nc(-c3ccc(OC4CCN(C5COC5)CC4)cc3)c2c1` (centres unmarked) [Example A319, N-(cyclopentyl(pyridin-2-yl)methyl)-3-(4-((1-(oxetan-3-yl)piperidin-4-yl)oxy)phenyl)-1H-indazole-5-carboxamide], the GI50 in test [1] (Homo sapiens, PA-1) was under 100 nM; in test [2], 100 to 500 nM. Also, the pIC50 on human TTK was over 7.00.

Turning to `O=C(NC(c1ccccn1)C1CC1)c1ccc2[nH]nc(-c3ccc(N4CCN(CCO)CC4)cc3)c2c1` (centres unmarked) [Example A384, N-(cyclopropyl(pyridin-2-yl)methyl)-3-(4-(4-(2-hydroxyethyl)piperazin-1-yl)phenyl)-1H-indazole-5-carboxamide], the GI50 was in the range of 100 to 500 nM in test [1] (Homo sapiens, PA-1) and 100 to 500 nM in test [2]. For the same compound, on human TTK, the negative-log IC50 (pIC50) was over 7.00.

Turning to `CN1C2CCC1CC(Oc1ccc(-c3n[nH]c4ccc(C(=O)N[C@H](c5ccccn5)C5CC5)cc34)cc1)C2` (stereo partly drawn) [Example A397, N-((S)-cyclopropyl(pyridin-2-yl)methyl)-3-(4-((8-methyl-8-azabicyclo[3.2.1]octan-3-yl)oxy)phenyl)-1H-indazole-5-carboxamide], the concentration for 50% growth inhibition (GI50) in test [1] (Homo sapiens, PA-1) was under 100 nM; in test [2] it was under 100 nM. On human TTK, the pIC50 is over 7.00.

As for `CC(C)CC(NC(=O)c1ccc2[nH]nc(-c3ccc(OC4CCN(C5COC5)CC4)cc3)c2c1)c1ccccn1` (centres unmarked) [Example A291, N-(3-methyl-1-(pyridin-2-yl)butyl)-3-(4-((1-(oxetan-3-yl)piperidin-4-yl)oxy)phenyl)-1H-indazole-5-carboxamide], the 50% growth inhibitory concentration (GI50) in test [1] (Homo sapiens, PA-1) is under 100 nM; in test [2] it was under 100 nM. For the same compound, the pIC50 on human TTK was over 7.00.

Regarding `O=C(N[C@H](c1ccccn1)C1CC1)c1ccc2[nH]nc(-c3ccc(N4CCN(C5COC5)CC4)cc3)c2c1` [Example A401, (S)-N-(cyclopropyl(pyridin-2-yl)methyl)-3-(4-(4-(oxetan-3-yl)piperazin-1-yl)phenyl)-1H-indazole-5-carboxamide], the GI50 is under 100 nM in test [1] (Homo sapiens, PA-1) and under 100 nM in test [2]. For the same compound, the negative-log IC50 (pIC50) at human TTK is over 7.00.

`CN1CCC(Oc2ccc(-c3n[nH]c4ccc(C(=O)NCC5(c6ccccc6)CC5)cc34)cc2)CC1` [Example A471, 3-(4-((1-methylpiperidin-4-yl)oxy)phenyl)-N-((1-phenylcyclopropyl)methyl)-1H-indazole-5-carboxamide]: the concentration for 50% growth inhibition (GI50) in test [1] (PA-1 ovarian cancer cells, SRB assay) was in the range of 100 to 500 nM; in test [2] (HCT116 colon cancer cells, SRB assay), 100 to 500 nM. Moreover, the pIC50 on human TTK is over 7.00.

On to `CC(C)C(NC(=O)c1ccc2[nH]nc(-c3ccc(OC4CC5COCC(C4)N5C)cc3)c2c1)c1ccccc1Cl` [Example A393, N-(1-(2-chlorophenyl)-2-mcthylpropyl)-3-(4-(((1R,5S,7s)-9-methy]-3-oxa-9-azabicyclo[3.3.1]nonan-7-yl)oxy)phenyl)-1H-indazole-5-carboxamide], for which the GI50 in test [1] (Homo sapiens, PA-1) was under 100 nM; in test [2], under 100 nM. Moreover, the pIC50 at human TTK was over 7.00.

Take `CCC(CC)(CNC(=O)c1ccc2[nH]nc(-c3ccc(OC4CCN(C5COC5)CC4)cc3)c2c1)N1CCOCC1` [Example A466, N-(2-ethyl-2-morpholinobutyl)-3-(4-((1-(oxetan-3-yl)piperidin-4-yl)oxy)phenyl)-1H-indazole-5-carboxamide]: the GI50 was under 100 nM in test [1] (Homo sapiens, PA-1) and 100 to 500 nM in test [2]. For the same compound, on human TTK, the negative-log IC50 (pIC50) was over 7.00.

In the case of `CC(C)[C@H](NC(=O)c1ccc2[nH]nc(-c3ccc(OC4CCN(CCO)CC4)cc3)c2c1)c1ccccc1Cl` [Example A232, (S)-N-(1-(2-chlorophenyl)-2-methylpropyl)-3-(4-((1-(2-hydroxyethyl)piperidin-4-yl)oxy)phenyl)-1H-indazole-5-carboxamide], the concentration for 50% growth inhibition (GI50) in test [1] (Homo sapiens, PA-1) was under 100 nM; in test [2], under 100 nM. In addition, at human TTK, the pIC50 is over 7.00.

`CN1C2COCC1CC(Oc1ccc(-c3n[nH]c4ccc(C(=O)N[C@H](c5ccccn5)C5CC5)cc34)cc1)C2` (stereo partly drawn) [Example A389, N-((S)-cyclopropyl(pyridin-2-yl)methyl)-3-(4-(((1R,5S,7s)-9-methyl-3-oxa-9-azabicyclo[3.3.1]nonan-7-yl)oxy)phenyl)-1H-indazole-5-carboxamide]: the 50% growth inhibitory concentration (GI50) in test [1] (Homo sapiens, PA-1) is under 100 nM; in test [2] it was under 100 nM. Further, the pIC50 at human TTK is over 7.00.
